Consider one substance from US6631283B2 (priority 2000, dated 2003).

The test system of the test is Vero cells. The test is classed as cell-based.

Turning to Chlorin e6 [free Ce6], the “cell-associated Ce6-specific fluorescence (delivery of Ce6 to cells)” value was “no detectable Ce6-specific fluorescence”.
